# From patent US7592336B2, “Hepatitis C virus inhibitors” (Bristol-Myers Squibb Company, priority 2005, dated 2009)
# Key:
# [1] = biological target: T1, HCV NS3/4A protease complex, H77 strain (Hepatitis C virus genotype 1a, UniProt P27958, C1454S/C1711G); test: FRET peptide assay to monitor HCV NS3/4A proteolytic activity (H77 strain); format: biochemical, HCV genotype 1a; details: read-out: IC50 against NS3/4A H77 strain
# T1 construct: DNA encoding the recombinant HCV NS3/4A protease complex (amino acids 1027 to 1711) for these strains; inferred from pET21b vector and Ni-NTA purification; made in house; host or cells: Escherichia coli BL21 (DE3), pET21b
# Text: (§1) HCV NS3 protease complexes, derived from the BMS strain, H77 strain or J4L6S strain, were generated, as described below. These purified recombinant proteins were generated for use in a homogeneous assay (see below) to provide an indication of how effective compounds of the present disclosure would be in inhibiting HCV NS3 proteolytic activity.
# (§2) The H77 and J4L6S strains were used for production of recombinant NS3/4A protease complexes. DNA encoding the recombinant HCV NS3/4A protease complex (amino acids 1027 to 1711) for these strains were manipulated as described by P. Gallinari et al. (see Gallinari P, Paolini C, Brennan D, Nardi C, Steinkuhler C, De Francesco R. Biochemistry. 38(17):5620-32, (1999)). Briefly, a three-lysine solubilizing tail was added at the 3′-end of the NS4A coding region. The cysteine in the P1 position of the NS4A-NS4B cleavage site (amino acid 1711) was changed to a glycine to avoid the proteolytic cleavage of the lysine tag. Furthermore, a cysteine to serine mutation was introduced by PCR at amino acid position 1454 to prevent the autolytic cleavage in the NS3 helicase domain. […]
# [2] = biological target: T2, HCV NS3/4A protease complex, J4L6S strain (Hepatitis C virus genotype 1b, UniProt O92972, C1454S/C1711G); test: FRET peptide assay to monitor HCV NS3/4A proteolytic activity (J4L6S strain); format: biochemical, HCV genotype 1b; details: read-out: IC50 against NS3/4A J4L6S strain
# T2 construct: DNA encoding the recombinant HCV NS3/4A protease complex (amino acids 1027 to 1711) for these strains; inferred from pET21b vector and Ni-NTA purification; made in house; host or cells: Escherichia coli BL21 (DE3), pET21b
# Text: as §1, §2
# [3] = system: HCV replicon (Renilla luciferase) in HUH-7 cells; test: HCV replicon luciferase reporter assay; format: cell-based, HCV strain 1b; details: Huh-7, 96 h, 4 days
# Text: As a secondary assay, EC50 determinations from the replicon FRET assay were confirmed in a replicon luciferase reporter assay. Utilization of a replicon luciferase reporter assay was first described by Krieger et al (Krieger N, Lohmann V, and Bartenschlager R, J. Virol. 75(10):4614-4624 (2001)). The replicon construct described for our FRET assay was modified by inserting cDNA encoding a humanized form of the Renilla luciferase gene and a linker sequence fused directly to the 3′-end of the luciferase gene. This insert was introduced into the replicon construct using an Asc1 restriction site located in core, directly upstream of the neomycin marker gene. The adaptive mutation at position 1179 (serine to isoleucine) was also introduced (Blight K J, Kolykhalov, A A, Rice, C M, Science 290(5498):1972-1974). A stable cell line constitutively expressing this HCV replicon construct was generated as described above. The luciferase reporter assay was set up as described for the HCV replicon FRET assay with the following modifications. Following 4 days in a 37° C./5% CO2 incubator, cells were analyzed for Renilla Luciferase activity using the Promega Dual-Glo Luciferase Assay System. […] Plates were read on a Packard TopCount NXT using a luminescence program.
# The percentage inhibition was calculated using the formula below: […]
# The values were graphed and analyzed using XLfit to obtain the EC50 value.
# T2 sequence (O92972 1027-1711 C1454S/C1711G, one chain of several): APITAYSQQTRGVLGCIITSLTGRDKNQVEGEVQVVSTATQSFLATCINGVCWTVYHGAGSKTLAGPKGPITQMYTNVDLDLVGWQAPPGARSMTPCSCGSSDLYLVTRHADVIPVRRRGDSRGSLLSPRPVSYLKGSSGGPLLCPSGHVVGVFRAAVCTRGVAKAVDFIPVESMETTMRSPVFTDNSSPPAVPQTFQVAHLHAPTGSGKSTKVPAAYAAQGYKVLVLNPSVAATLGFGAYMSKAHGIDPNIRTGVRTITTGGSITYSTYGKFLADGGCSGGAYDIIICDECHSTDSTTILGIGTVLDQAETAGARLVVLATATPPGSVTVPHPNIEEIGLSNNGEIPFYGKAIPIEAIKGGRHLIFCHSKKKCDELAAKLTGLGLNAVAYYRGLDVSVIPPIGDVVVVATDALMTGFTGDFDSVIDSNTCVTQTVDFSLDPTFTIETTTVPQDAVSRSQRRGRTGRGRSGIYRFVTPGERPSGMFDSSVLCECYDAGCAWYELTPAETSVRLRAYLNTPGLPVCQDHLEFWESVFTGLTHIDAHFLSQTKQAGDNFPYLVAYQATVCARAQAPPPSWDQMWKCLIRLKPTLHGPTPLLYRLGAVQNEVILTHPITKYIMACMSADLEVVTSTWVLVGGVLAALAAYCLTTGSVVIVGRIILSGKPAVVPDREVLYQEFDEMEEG
# T1 sequence (P27958 1027-1711 C1454S/C1711G, one chain of several): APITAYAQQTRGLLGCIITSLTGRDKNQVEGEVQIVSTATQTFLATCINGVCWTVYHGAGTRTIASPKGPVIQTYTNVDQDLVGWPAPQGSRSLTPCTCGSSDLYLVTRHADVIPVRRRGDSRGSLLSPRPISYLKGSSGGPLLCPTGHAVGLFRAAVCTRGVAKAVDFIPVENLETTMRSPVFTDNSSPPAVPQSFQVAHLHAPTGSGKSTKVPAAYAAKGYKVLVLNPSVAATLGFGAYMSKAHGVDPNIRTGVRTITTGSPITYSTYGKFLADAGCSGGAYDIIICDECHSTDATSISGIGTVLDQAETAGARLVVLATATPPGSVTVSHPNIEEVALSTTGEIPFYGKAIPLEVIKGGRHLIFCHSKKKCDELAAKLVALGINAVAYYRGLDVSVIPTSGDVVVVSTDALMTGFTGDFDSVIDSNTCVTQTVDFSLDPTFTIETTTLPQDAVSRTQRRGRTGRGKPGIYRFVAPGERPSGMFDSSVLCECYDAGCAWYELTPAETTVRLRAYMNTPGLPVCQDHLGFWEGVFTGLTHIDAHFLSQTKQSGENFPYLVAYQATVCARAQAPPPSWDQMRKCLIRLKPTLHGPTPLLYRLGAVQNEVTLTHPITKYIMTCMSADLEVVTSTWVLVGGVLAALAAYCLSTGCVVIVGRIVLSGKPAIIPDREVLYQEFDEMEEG
compound,measurement,setting,value
C=C[C@@H]1C[C@]1(NC(=O)[C@@H]1C[C@@](O)(c2ccc(-c3ccccc3)cc2)CN1C(=O)[C@@H](NC(=O)OC(C)(C)C)C(C)(C)C)C(=O)NS(=O)(=O)C1CC1 [Compound 3],IC50,[1],1.6 nM
same,IC50,[2],0.9 nM
same,EC50,[3],14 nM
